Reference: patent publication US20250145628A1, “PYRAZOLOPYRIMIDINES, COMPOSITIONS COMPRISING THEM AND USES THEREOF” (Novo Nordisk A/S, priority 2022, published 2025)

Key:
[1] = target: T1, human CB1 receptor (Homo sapiens, UniProt P21554); experiment: bioSensAll β-arrestin plasma membrane translocation BRET biosensor (+GRK2) assay (antagonism of CP-55,940); type: cell-based; details: HEK293 cells transfected with hCB1 and β-arrestin PM translocation biosensor (+GRK2), EC75 of CP-55,940 (100 nM), overnight incubation, read-out: CB1 wt βarr2 IC50
T1 construct: expressed in transfected cells; host or cells: HEK293
Procedure: (§1) Using polyethylenimine (PEI) transfection agent, HEK293 cells were transfected in suspension with the human CB1 or CB1b receptor and one of the following bioSensAll® assays: GAPL-Gi2, or β-arrestin plasma membrane (PM) translocation biosensor (+GRK2). Cells were directly seeded in 96-well plates immediately following transfection.
(§2) Cells were incubated with coelenterazine (luciferase substrate) and different test compounds prior to the measurement of BRET signals.
ii) The multimolecular β-arrestin membrane recruitment biosensors allow for real-time spatio-temporal monitoring of β-arrestin 1 and β-arrestin 2 following GPCR activation. Specifically, these β-arrestin sensors were designed to detect the recruitment of proteins to the plasma membrane (β-arrestin PM) with localization to compartment resulting in an increased BRET signal.
(§3) HEK293 cells were maintained in Dulbecco's Modified Eagle Medium (DMEM) (Wisent; cat #319-030-CL: without sodium pyruvate, with 4.5 g/L glucose, without L-glutamine) supplemented with 1% penicillin-streptomycin (Wisent; cat #450-201-EL) and 2 or 10% fetal bovine serum (Wisent cat #090150).
(§4) HEK293 cells were co-transfected with hCB1 or hCB1b and one of the above-listed bioSensAll® assays. For each transfection condition: • the total amount of transfected DNA was kept constant at 1 μg per mL of cell culture to be transfected; whenever necessary, salmon sperm DNA (Invitrogen, cat #15632011) was used as ‘carrier’ DNA to supplement plasmid DNA (i.e., biosensor and receptor); • the PEI (polyethylenimine 25 kDa linear, PolyScience, cat #23966) to DNA ratio (ug:ug) was fixed at 3:1.
(§5) Transfections were carried out as follows: • DNA and PEI were first diluted separately in 150 mM NaCl. The volume of the diluent in each tube corresponds to 5% of the cell culture volume to be transfected. • Once DNA and PEI were diluted, the PEI-containing solution was added to the DNA solution and the DNA/PEI mixture immediately vortexed for 5 seconds. • The DNA/PEI mixture was incubated for at least 20 minutes at room temperature to allow for the formation of DNA/PEI complexes. • During the incubation, HEK293 cells were detached, counted and re-suspended in culture medium (composition specified above). • At the end of the incubation period, the DNA/PEI mixture was added to the cells. • Cells were finally distributed in 96-well plates (White Opaque 96-well/Microplates, Greiner, cat #655083 or CulturPlate-96, White Opaque 96-well Microplate, PerkinElmer, cat #6005688) at a density of 30 000 cells per well.
(§6) At ˜48 hours post-transfection: • Using 450-Select TS Biotek plate washer, culture medium was aspirated and replaced with 100 μl of Hank's Balanced Salt Solution buffer (HBSS) (Wisent, cat #319-067CL: without red phenol; with sodium bicarbonate, with calcium and magnesium, with HEPES) per well. This process was performed a total of two times (i.e., 2 washes). • After the washing step, the HP D300 digital dispenser (Tecan) was used to inject increasing doses (12) of test compounds (ranging from 0-600 nM) to wells. Three to five minutes later, an EC75 of CP-55,940 (0.1 nM for GAPL-Gi2 assay; 100 nM for β-arrestin PM translocation biosensor (+GRK2)) was added to columns 2-12 of each 96-well plate.
(§7) BRET signals were determined by calculating the ratio of light emitted by GFP-acceptor (515 nm) over light emitted by luciferase-donor (400 nm). All BRET ratios were standardized using the equation below with pre-established BRET values for positive and negative controls. The standardized BRET ratio is referred to as universal BRET (uBRET).
(§8) Resulting dose-response curves were fitted using the four-parameter logistic non-linear regression model in GraphPad Prism 9.

[2] = target: T1, human CB1 receptor; experiment: bioSensAll GAPL-Gi2 BRET biosensor assay (antagonism of CP-55,940); type: cell-based; details: HEK293 cells transfected with hCB1 and GAPL-Gi2 biosensor, EC75 of CP-55,940 (0.1 nM), overnight incubation, read-out: CB1 wt Gi2 IC50
Procedure: as §1, §2
i) GAPL sensors are used to monitor the activation of heterotrimeric G proteins at the plasma membrane upon receptor stimulation. Specifically, these multimolecular BRET sensors detect the plasma membrane recruitment of proteins that interact with active Ga subunits in a G protein family-selective manner. G protein activation following receptor stimulation generally leads to an increase in the BRET signal.
as §3, §4, §5, §6, §7, §8

T1 sequence (P21554 whole entry): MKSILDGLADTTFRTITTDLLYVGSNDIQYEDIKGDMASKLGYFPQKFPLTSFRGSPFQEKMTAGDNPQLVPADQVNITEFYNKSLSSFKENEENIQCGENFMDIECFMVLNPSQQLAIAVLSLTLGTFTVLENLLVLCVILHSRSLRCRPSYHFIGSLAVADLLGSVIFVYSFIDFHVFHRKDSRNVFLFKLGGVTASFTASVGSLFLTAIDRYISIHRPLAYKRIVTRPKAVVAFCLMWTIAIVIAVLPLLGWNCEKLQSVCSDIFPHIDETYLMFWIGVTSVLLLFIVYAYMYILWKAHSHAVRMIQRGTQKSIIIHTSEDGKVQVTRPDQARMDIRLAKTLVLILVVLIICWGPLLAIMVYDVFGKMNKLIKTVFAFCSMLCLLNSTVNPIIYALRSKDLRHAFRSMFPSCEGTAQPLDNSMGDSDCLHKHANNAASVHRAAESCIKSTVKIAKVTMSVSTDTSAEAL

| SMILES | IC50 [1] | IC50 [2] |
| --- | --- | --- |
| CN(CCC(N)=O)c1cc(N2CC[C@H](CC(N)=O)C2)n2nc(-c3ccccc3Cl)c(-c3ccc(Cl)cc3)c2n1 [Compound 28, 3-[[7-[(3R)-3-(2-amino-2-oxo-ethyl)pyrrolidin-1-yl]-2-(2-chlorophenyl)-3-(4-chlorophenyl)pyrazolo[1,5-a]pyrimidin-5-yl]-methyl-amino]propanamide] | 93.9 nM | 18.9 nM |
| Cc1ccc(-c2cc(N3CCC[C@H]3CO)nc3c(-c4ccc(Cl)cc4)c(-c4ccccc4Cl)nn23)cn1 [Compound 56, [(2S)-1-[2-(2-chlorophenyl)-3-(4-chlorophenyl)-7-(6-methyl-3-pyridyl)pyrazolo[1,5-a]pyrimidin-5-yl]pyrrolidin-2-yl]methanol] | 5.8 nM | 2.69 nM |
| C[C@H](O)COc1cc(-c2ccc(C(F)(F)F)nc2)n2nc(-c3ccccc3Cl)c(-c3ccc(Cl)cc3)c2n1 [Compound 70(S)] | 8.27 nM | 1.71 nM |
| CNC(=O)[C@H]1CCN1c1cc(N2CCC(C)(C(N)=O)CC2)n2nc(-c3ccccc3Cl)c(-c3ccc(Cl)cc3)c2n1 [Compound 65, 1-[2-(2-chlorophenyl)-3-(4-chlorophenyl)-5-[(2R)-2-(methylcarbamoyl)azetidin-1-yl]pyrazolo[1,5-a]pyrimidin-7-yl]-4-methyl-piperidine-4-carboxamide] | 20.6 nM | 13.3 nM |
| CC(C)(O)COc1cc(N2CC(C)(C#N)C2)n2nc(-c3ccc(C#N)nc3)c(-c3ccc(Cl)cc3)c2n1 [Compound 51, 5-[3-(4-chlorophenyl)-7-(3-cyano-3-methyl-azetidin-1-yl)-5-(2-hydroxy-2-methyl-propoxy)pyrazolo[1,5-a]pyrimidin-2-yl]pyridine-2-carbonitrile] | 1.73 nM | 0.95 nM |
| O[C@H]1CCN(c2cc(-c3ccc(C(F)(F)F)nc3)n3nc(-c4ccccc4Cl)c(-c4ccc(Cl)cc4)c3n2)C1 [Compound 72(S)] | 5.25 nM | 1.64 nM |
| CN(CCC(N)=O)c1cc(N2CCC(C)(C(N)=O)CC2)n2nc(-c3ccccc3Cl)c(-c3ccc(Cl)cc3)c2n1 [Compound 22, 1-[5-[(3-amino-3-oxo-propyl)-methyl-amino]-2-(2-chlorophenyl)-3-(4-chlorophenyl)pyrazolo[1,5-a]pyrimidin-7-yl]-4-methyl-piperidine-4-carboxamide] | 9.15 nM | 0.99 nM |
| CC(C)(O)COc1cc(N2CCN(S(=O)(=O)C(F)(F)F)CC2)n2nc(-c3ccccc3Cl)c(-c3ccc(Cl)cc3)c2n1 [Compound 15, 1-[2-(2-chlorophenyl)-3-(4-chlorophenyl)-7-[4-(trifluoromethylsulfonyl)piperazin-1-yl]pyrazolo[1,5-a]pyrimidin-5-yl]oxy-2-methyl-propan-2-ol] | 9.55 nM | 3.97 nM |
| CC(C)OC1(C(N)=O)CCN(c2cc(OCC(C)(C)O)nc3c(-c4ccc(Cl)cc4)c(-c4ccc(C#N)nc4)nn23)CC1 [Compound 63] | 1.62 nM | 0.9 nM |
| CC(C)OC1(C(N)=O)CCN(c2cc(OCC(C)(C)O)nc3c(-c4ccc(Cl)cc4)c(-c4ccccc4Cl)nn23)CC1 [Compound 57, 1-[2-(2-chlorophenyl)-3-(4-chlorophenyl)-5-(2-hydroxy-2-methyl-propoxy)pyrazolo[1,5-a]pyrimidin-7-yl]-4-isopropoxy-piperidine-4-carboxamide] | 2.86 nM | 1.04 nM |
| CCNC(=O)CN(C)c1cc(N2CC(CC(N)=O)C2)n2nc(-c3ccccc3Cl)c(-c3ccc(Cl)cc3)c2n1 [Compound 31, 2-[1-[2-(2-chlorophenyl)-3-(4-chlorophenyl)-5-[[2-(ethylamino)-2-oxo-ethyl]-methyl-amino]pyrazolo[1,5-a]pyrimidin-7-yl]azetidin-3-yl]acetamide] | 418 nM | 114 nM |
| CCOC1(C(N)=O)CCN(c2cc(OCC(C)(C)O)nc3c(-c4ccc(Cl)cc4)c(-c4ccc(C#N)nc4)nn23)CC1 [Compound 55, 1-[3-(4-chlorophenyl)-2-(6-cyano-3-pyridyl)-5-(2-hydroxy-2-methyl-propoxy)pyrazolo[1,5-a]pyrimidin-7-yl]-4-ethoxy-piperidine-4-carboxamide] | 3.22 nM | 1.25 nM |

Further compounds by falling IC50 [1], results first:

| IC50 [1] | IC50 [2] | SMILES |
| --- | --- | --- |
| 30.5 nM | 5.03 nM | CCNC(=O)CN(C)c1cc(N2CCC(C)(C(N)=O)CC2)n2nc(-c3ccccc3Cl)c(-c3ccc(Cl)cc3)c2n1 [Compound 26, 1-[2-(2-chlorophenyl)-3-(4-chlorophenyl)-5-[[2-(ethylamino)-2-oxo-ethyl]-methyl-amino]pyrazolo[1,5-a]pyrimidin-7-yl]-4-methyl-piperidine-4-carboxamide] |
| 10.9 nM | 2.48 nM | CNC(=O)CCN(C)c1cc(N2CCC(C)(C(N)=O)CC2)n2nc(-c3ccccc3Cl)c(-c3ccc(Cl)cc3)c2n1 [Compound 38, 1-[2-(2-chlorophenyl)-3-(4-chlorophenyl)-5-[methyl-[3-(methylamino)-3-oxo-propyl]amino]pyrazolo[1,5-a]pyrimidin-7-yl]-4-methyl-piperidine-4-carboxamide] |
| 8.61 nM | 3.97 nM | CC(C)(O)COc1cc(-c2ccc(C(F)(F)F)nc2)n2nc(-c3ccccc3Cl)c(-c3ccc(Cl)cc3)c2n1 [Compound 45, 1-[2-(2-chlorophenyl)-3-(4-chlorophenyl)-7-[6-(trifluoromethyl)-3-pyridyl]pyrazolo[1,5-a]pyrimidin-5-yl]oxy-2-methyl-propan-2-ol] |
| 5.02 nM | 1.52 nM | CC(C)(O)COc1cc(N2CC(C)(C(N)=O)C2)n2nc(-c3ccc(C#N)nc3)c(-c3ccc(Cl)cc3)c2n1 [Compound 60, 1-[3-(4-chlorophenyl)-2-(6-cyano-3-pyridyl)-5-(2-hydroxy-2-methyl-propoxy)pyrazolo[1,5-a]pyrimidin-7-yl]-3-methyl-azetidine-3-carboxamide] |
| 4.6 nM | 1.28 nM | CC1(C(N)=O)CCN(c2cc(N3CC[C@@H](O)C3)nc3c(-c4ccc(Cl)cc4)c(-c4ccccc4Cl)nn23)CC1 [Compound 21, 1-[2-(2-chlorophenyl)-3-(4-chlorophenyl)-5-[(3R)-3-hydroxypyrrolidin-1-yl]pyrazolo[1,5-a]pyrimidin-7-yl]-4-methyl-piperidine-4-carboxamide] |
| 4.07 nM | 1.37 nM | C[C@@H](CO)Oc1cc(-c2ccc(C(F)(F)F)nc2)n2nc(-c3ccccc3Cl)c(-c3ccc(Cl)cc3)c2n1 [Compound 71(S)] |
| 2.56 nM | 1.47 nM | COC1(C)CN(c2cc(OCC(C)(C)O)nc3c(-c4ccc(Cl)cc4)c(-c4ccc(C#N)nc4)nn23)C1 [Compound 52, 5-[3-(4-chlorophenyl)-5-(2-hydroxy-2-methyl-propoxy)-7-(3-methoxy-3-methyl-azetidin-1-yl)pyrazolo[1,5-a]pyrimidin-2-yl]pyridine-2-carbonitrile] |
| 1.33 nM | 0.481 nM | O=S1(=O)CCC(Nc2cc(N3CCC[C@H]3CO)nc3c(-c4ccc(Cl)cc4)c(-c4ccccc4Cl)nn23)CC1 [Compound 11, [(2S)-1-[2-(2-chlorophenyl)-3-(4-chlorophenyl)-7-[(1,1-dioxothian-4-yl)amino]pyrazolo[1,5-a]pyrimidin-5-yl]pyrrolidin-2-yl]methanol] |
